Like-named read-outs stand apart in the source and are kept apart here.
How the values were obtained:
[1] = target: T1, APTX (C2H2) zinc finger peptide (Homo sapiens, UniProt Q7Z2E3); type: binding
T1 construct: purchased Genemed Synthesis Inc. (San Antonio, Tex.); host or cells: chemical synthesis
T1 sequence (Q7Z2E3 330-356 limits assumed): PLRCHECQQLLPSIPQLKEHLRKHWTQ

[2] = target: T2, PARP-1 (C3H1) zinc finger peptide (Homo sapiens, UniProt P09874, DEL32-46); type: binding
T2 construct: purchased Genemed Synthesis Inc. (San Antonio, Tex.); host or cells: chemical synthesis
T2 sequence (P09874 with tags, fused parts or gaps DEL32-46 limits assumed): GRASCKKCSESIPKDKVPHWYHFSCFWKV

[3] = target: T3, XPA (C4) zinc finger peptide (Homo sapiens, UniProt P23025); type: binding
T3 construct: purchased Genemed Synthesis Inc. (San Antonio, Tex.); host or cells: chemical synthesis

[4] = target: T1, APTX (C2H2) zinc finger peptide; type: binding; remark: listed apart in the source
[5] = target: T2, PARP-1 (C3H1) zinc finger peptide; type: binding; remark: listed apart in the source
[6] = target: T3, XPA (C4) zinc finger peptide; type: binding; remark: listed apart in the source
[7] = target: T1, APTX (C2H2) zinc finger peptide; type: binding; remark: listed apart in the source
[8] = target: T2, PARP-1 (C3H1) zinc finger peptide; type: binding; remark: listed apart in the source
[9] = target: T3, XPA (C4) zinc finger peptide; type: binding; remark: listed apart in the source
[10] = target: T1, APTX (C2H2) zinc finger peptide; type: binding; remark: listed apart in the source
[11] = target: T2, PARP-1 (C3H1) zinc finger peptide; type: binding; remark: listed apart in the source
[12] = target: T3, XPA (C4) zinc finger peptide; type: binding; remark: listed apart in the source
APTX protein = target: T4, APTX protein (Homo sapiens, UniProt Q7Z2E3); type: cell-based
T4 construct: APTX, PARP-1, and XPA protein were immunoprecipitated from cell extracts using corresponding antibodies; endogenous in cells; host or cells: HaCaT human keratinocytes

PARP-1 protein = target: T5, PARP-1 protein (Homo sapiens, UniProt P09874); type: cell-based
T5 construct: APTX, PARP-1, and XPA protein were immunoprecipitated from cell extracts using corresponding antibodies; endogenous in cells; host or cells: HaCaT human keratinocytes

XPA protein = target: T6, XPA protein (Homo sapiens, UniProt P23025); type: cell-based
T6 construct: APTX, PARP-1, and XPA protein were immunoprecipitated from cell extracts using corresponding antibodies; endogenous in cells; host or cells: HaCaT human keratinocytes

PARP [13] = target: T7, PARP (Homo sapiens, UniProt P09874); design: host or cells: urothelial cells; settings: 1 µM; cited from earlier work
Target sequence in this assay (P09874 2-1014 limits assumed): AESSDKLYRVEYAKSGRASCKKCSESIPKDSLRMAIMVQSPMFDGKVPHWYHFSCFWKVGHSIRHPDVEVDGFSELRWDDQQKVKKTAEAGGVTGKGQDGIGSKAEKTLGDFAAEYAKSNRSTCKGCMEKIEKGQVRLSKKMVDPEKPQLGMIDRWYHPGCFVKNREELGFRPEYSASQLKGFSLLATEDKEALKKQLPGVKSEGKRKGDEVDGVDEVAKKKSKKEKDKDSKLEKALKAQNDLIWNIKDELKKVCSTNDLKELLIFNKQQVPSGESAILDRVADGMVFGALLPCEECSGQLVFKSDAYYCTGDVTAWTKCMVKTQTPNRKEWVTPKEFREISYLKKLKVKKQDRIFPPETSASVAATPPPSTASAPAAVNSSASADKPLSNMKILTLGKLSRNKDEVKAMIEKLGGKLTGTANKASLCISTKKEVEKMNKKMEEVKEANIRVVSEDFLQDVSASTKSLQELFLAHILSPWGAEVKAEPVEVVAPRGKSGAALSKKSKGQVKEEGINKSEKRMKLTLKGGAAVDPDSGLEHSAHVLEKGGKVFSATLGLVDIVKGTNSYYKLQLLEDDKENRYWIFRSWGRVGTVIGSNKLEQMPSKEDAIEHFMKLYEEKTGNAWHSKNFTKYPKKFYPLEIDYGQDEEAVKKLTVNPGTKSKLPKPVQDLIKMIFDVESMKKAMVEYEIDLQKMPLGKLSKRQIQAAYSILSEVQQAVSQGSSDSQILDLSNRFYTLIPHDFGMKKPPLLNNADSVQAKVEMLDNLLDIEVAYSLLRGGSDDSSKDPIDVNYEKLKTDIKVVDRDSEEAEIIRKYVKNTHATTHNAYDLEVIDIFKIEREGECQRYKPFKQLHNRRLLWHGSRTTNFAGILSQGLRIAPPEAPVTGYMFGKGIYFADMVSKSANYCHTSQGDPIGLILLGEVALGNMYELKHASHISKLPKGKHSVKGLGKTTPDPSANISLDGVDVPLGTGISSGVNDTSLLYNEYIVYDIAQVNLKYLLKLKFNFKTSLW

C3H1 and C4 complexes = settings: cited from earlier work
C2H2 complex = settings: cited from earlier work
PARP [14] = target: T7, PARP; design: host or cells: human keratinocytes; settings: cited from earlier work
Target sequence in this assay (P09874 2-1014): as the sequence (P09874 2-1014 limits assumed) above

T3 sequence (P23025 101-137 limits assumed): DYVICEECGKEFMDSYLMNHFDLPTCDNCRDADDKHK
T6 sequence (P23025 whole entry): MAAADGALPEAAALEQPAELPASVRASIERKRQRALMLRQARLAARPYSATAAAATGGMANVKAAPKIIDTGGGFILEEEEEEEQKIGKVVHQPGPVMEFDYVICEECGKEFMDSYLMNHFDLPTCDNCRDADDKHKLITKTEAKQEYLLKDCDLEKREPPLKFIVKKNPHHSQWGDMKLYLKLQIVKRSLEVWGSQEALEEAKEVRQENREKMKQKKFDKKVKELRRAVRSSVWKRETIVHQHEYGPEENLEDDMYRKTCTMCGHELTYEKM
T4 sequence (Q7Z2E3 whole entry): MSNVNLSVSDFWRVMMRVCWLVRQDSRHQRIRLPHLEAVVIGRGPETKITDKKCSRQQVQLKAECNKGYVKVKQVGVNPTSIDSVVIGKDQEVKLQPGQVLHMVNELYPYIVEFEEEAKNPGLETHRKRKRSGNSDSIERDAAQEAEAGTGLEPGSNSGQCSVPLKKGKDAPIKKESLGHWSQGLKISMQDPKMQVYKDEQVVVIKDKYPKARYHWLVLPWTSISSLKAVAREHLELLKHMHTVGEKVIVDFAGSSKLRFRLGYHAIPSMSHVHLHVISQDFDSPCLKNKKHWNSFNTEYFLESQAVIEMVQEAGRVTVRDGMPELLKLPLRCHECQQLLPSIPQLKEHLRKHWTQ
T5 sequence (P09874 whole entry): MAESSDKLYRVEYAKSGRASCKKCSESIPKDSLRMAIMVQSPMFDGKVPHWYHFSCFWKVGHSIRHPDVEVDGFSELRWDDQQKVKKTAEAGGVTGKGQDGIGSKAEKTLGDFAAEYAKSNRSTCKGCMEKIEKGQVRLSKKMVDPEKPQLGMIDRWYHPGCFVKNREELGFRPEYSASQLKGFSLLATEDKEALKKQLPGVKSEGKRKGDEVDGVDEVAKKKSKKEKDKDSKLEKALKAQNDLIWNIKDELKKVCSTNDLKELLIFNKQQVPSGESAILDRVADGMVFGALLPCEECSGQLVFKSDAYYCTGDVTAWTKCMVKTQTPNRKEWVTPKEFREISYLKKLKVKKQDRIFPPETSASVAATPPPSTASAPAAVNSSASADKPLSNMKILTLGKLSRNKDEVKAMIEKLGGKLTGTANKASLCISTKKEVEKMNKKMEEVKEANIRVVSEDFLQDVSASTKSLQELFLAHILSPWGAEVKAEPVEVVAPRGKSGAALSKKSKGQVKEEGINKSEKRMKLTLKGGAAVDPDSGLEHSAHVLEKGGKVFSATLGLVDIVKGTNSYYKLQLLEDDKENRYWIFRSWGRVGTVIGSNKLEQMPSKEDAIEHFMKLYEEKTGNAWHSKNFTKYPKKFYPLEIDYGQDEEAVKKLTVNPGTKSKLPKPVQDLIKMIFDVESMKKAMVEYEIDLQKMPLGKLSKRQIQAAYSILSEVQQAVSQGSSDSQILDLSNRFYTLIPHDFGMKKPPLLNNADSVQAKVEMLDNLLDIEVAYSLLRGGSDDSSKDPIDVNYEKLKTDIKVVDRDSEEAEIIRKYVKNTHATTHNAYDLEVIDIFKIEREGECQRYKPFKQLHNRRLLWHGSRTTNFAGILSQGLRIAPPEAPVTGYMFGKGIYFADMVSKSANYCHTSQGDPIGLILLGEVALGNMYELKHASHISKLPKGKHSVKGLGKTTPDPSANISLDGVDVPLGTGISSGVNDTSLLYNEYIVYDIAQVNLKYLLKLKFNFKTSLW

Row | Compound | cobalt binding (absorbance at 660 nm) after incubation with arsenical [1] | cobalt binding (absorbance at 660 nm) after incubation with arsenical [2] | cobalt binding (absorbance at 660 nm) after incubation with arsenical [3] | As—S bond formation (A270) [4] | As—S bond formation (A270) [5] | As—S bond formation (A270) [6] | binding to zinc finger peptide by MALDI-TOF mass spectrometry [7] | binding to zinc finger peptide by MALDI-TOF mass spectrometry [8] | binding to zinc finger peptide by MALDI-TOF mass spectrometry [9] | tertiary structure change (fluorescent intensity at 350 nm) [10] | tertiary structure change (fluorescent intensity at 350 nm) [11] | tertiary structure change (fluorescent intensity at 350 nm) [12] | zinc content in protein (APTX protein) | zinc content in protein (PARP-1 protein) | zinc content in protein (XPA protein) | PARP activity inhibition (PARP [13]) | stability of arsenite bound complex in kinetic studies (C3H1 and C4 complexes) [min] | stability of arsenite bound complex in kinetic studies (C2H2 complex) [min] | PARP activity inhibition (PARP [14])
1 | C[As](O)O [MMA(III), monomethylarsonous acid] | concentration-dependent decrease in cobalt binding to all three peptides | concentration-dependent decrease in cobalt binding to all three peptides | concentration-dependent decrease in cobalt binding to all three peptides | A270 values increased for all three types of zinc fingers | A270 values increased for all three types of zinc fingers | A270 values increased for all three types of zinc fingers | bound to APTX zinc finger peptide | also bound to the PARP-1 zinc finger | bound to the XPA zinc finger | decreased in a concentration-dependent manner | alters the tertiary structure of all 3 conformations of zinc fingers | alters the tertiary structure of all 3 conformations of zinc fingers | caused zinc loss from all three configurations of zinc finger proteins | caused zinc loss from all three configurations of zinc finger proteins | caused zinc loss from all three configurations of zinc finger proteins | about 30% | – | – | –
2 | sodium arsenite | – | decreased subsequent cobalt binding in a concentration-dependent manner | decreased subsequent cobalt binding in a concentration-dependent manner | – | A270 values increased in a concentration-dependent manner | A270 values increased in a concentration-dependent manner | showed no binding to the APTX zinc finger | bound with PARP-1 and XPA zinc finger peptides | bound with PARP-1 and XPA zinc finger peptides | showed no effect | selectively disrupted the tertiary structure of C3H1 and C4 zinc fingers | selectively disrupted the tertiary structure of C3H1 and C4 zinc fingers | selectively displaced zinc from PARP-1 and XPA proteins | selectively displaced zinc from PARP-1 and XPA proteins | selectively displaced zinc from PARP-1 and XPA proteins | – | 155 | 1.29 | up to 90%
